Where two headings read alike, the source gives them in different places.
Experiments:
[1] = Standard Cytotoxicity Assay for other cancer cell types (TC50, CellTiter-Glo); type: cell-based; details: for CC50 at 3 day: read-out: Cmpd A 3 day TC50; for CC50 at 7 day: read-out: Cmpd A 7 day TC50
Procedure: (§1) Approximately 24 hours later, test compound was added from serial dilutions prepared in DMSO from DMSO stock solutions.

[2] = tested on: cancer cell lines; experiment: as above; type: cell-based
Procedure: as §1

[3] = human, MALME-3 cells (normal skin), MALME-3 cells (skin (normal))
[4] = human, hFLS-RA (primary synoviocytes)
[5] = keratinocytes (primary skin cells), keratinocytes (primary skin)

Compound: O=C(NCc1cccnc1)Nc1ccc(COc2ccccc2-c2ccccc2)cc1 [Exemplary Compound A, 1-{4-[(biphenyl-2-yloxy)methyl]phenyl}-3-(pyridin-3-ylmethyl)urea]
- CC50 at 3 day ([1]; SAEC (primary lung cells), SAEC (primary lung), value printed with (?)): 15000 nM
- CC50 at 3 day [1, 3]: > 5000 nM
- CC50 at 7 day [1, 3]: 0.9 nM
- CC50 at 3 day [1, 4]: > 25000 nM
- CC50 at 7 day [1, 4]: > 25000 nM
- CC50 at 3 day [1, 5]: 2.9 nM
- CC50 at 7 day [1, 5]: < 0.4 nM
- CC50 at 3 day ([1]; mouse, NIH-3T3 cells (fibroblast), NIH-3T3 cells (mouse; fibroblast)): 0.45 nM
- CC50 ([2]; 72 h, DB (lymphoma), 3 DAY, read-out: TC50 (the source's name)): 3.5 nM
- CC50 ([2]; 72 h, DEL cells (lymphoma), 3 day, read-out: Cmpd A 3 day TC50): 41 nM
- CC50 ([2]; 72 h, MC/CAR cells (myeloma), 3 day, read-out: Cmpd A 3 day TC50): 8.2 nM
- CC50 ([2]; 72 h, NAMALWA cells (lymphoma), 3 day, read-out: Cmpd A 3 day TC50): 0.85 nM
- CC50 ([2]; Calu-6 cells (lung (NSCLC)), 3 day, read-out: Cmpd A 3 day TC50): 12 nM
- CC50 ([2]; DU145 cells (prostate), 3 day, read-out: Cmpd A 3 day TC50): 3.8 nM
- CC50 ([2]; Daudi cells (lymphoma), 3 day, read-out: Cmpd A 3 day TC50): < 0.8 nM
- CC50 ([2]; Homo sapiens, 22Rv1, 72 h, 22RV1 cells (prostate), 3 day, read-out: Cmpd A 3 day TC50): 8.4 nM
- CC50 ([2]; Homo sapiens, A 172, 72 h, A172 (glioma), 3 DAY, read-out: TC50 (the source's name)): 1.1 nM
- CC50 ([2]; Homo sapiens, A498, 72 h, A498 cells (kidney), 3 day, read-out: Cmpd A 3 day TC50): 43 nM
- CC50 ([2]; Homo sapiens, A2058, 72 h, A2058 cells (melanoma (lymph node metastasis)), 3 day, read-out: Cmpd A 3 day TC50): 3.4 nM
- CC50 ([2]; Homo sapiens, ACHN, 72 h, ACHN cells (kidney), 3 day, read-out: Cmpd A 3 day TC50): 3.7 nM
- CC50 ([2]; Homo sapiens, BT-20, 72 h, BT-20 cells (breast), 3 day, read-out: Cmpd A 3 day TC50): 13 nM
- CC50 ([2]; Homo sapiens, BT-474, 168 h, BT-474 cells (breast), 7 day, read-out: Cmpd A 7 day TC50): 1.1 nM
- CC50 ([2]; Homo sapiens, BXPC-3, 72 h, BxPC-3 cells (pancreas), 3 day, read-out: Cmpd A 3 day TC50): 11 nM
- CC50 ([2]; Homo sapiens, CAMA-1, 72 h, CAMA-1 cells (breast), 3 day, read-out: Cmpd A 3 day TC50): 4.6 nM
- CC50 ([2]; Homo sapiens, CCRF-CEM, 72 h, CCRF-CEM cells (lymphocytic leukemia), 3 day, read-out: Cmpd A 3 day TC50): 2 nM
- CC50 ([2]; Homo sapiens, COLO 205, 72 h, COLO205 (colon), 3 DAY, read-out: TC50 (the source's name)): 0.5 nM
- CC50 ([2]; Homo sapiens, COLO 205, 168 h, COLO205 (colon), 7 DAY, read-out: TC50 (the source's name)): 0.3 nM
- CC50 ([2]; Homo sapiens, COLO 205, 168 h, COLO205 cells (colon), 7 day, read-out: Cmpd A 7 day TC50): 0.3 nM
- CC50 ([2]; Homo sapiens, Calu-6, 72 h, Calu-6 cells (lung (NSCLC)), 3 day, read-out: Cmpd A 3 day TC50): 11 nM
- CC50 ([2]; Homo sapiens, DBTRG-05MG, 72 h, DBTRG-05MG cells (brain; glioblastoma), 3 day, read-out: Cmpd A 3 day TC50): 19 nM
- CC50 ([2]; Homo sapiens, DLD-1, 72 h, DLD-1 cells (colon), 3 day, read-out: Cmpd A 3 day TC50): 1.7 nM
- CC50 ([2]; Homo sapiens, DMS-114, 72 h, DMS-114 (SCLC), 3 DAY, read-out: TC50 (the source's name)): 0.16 nM
- CC50 ([2]; Homo sapiens, DU-145, 72 h, DU145 (prostate), 3 DAY, read-out: TC50 (the source's name)): 3.9 nM
- CC50 ([2]; Homo sapiens, DU-145, 72 h, DU145 cells (prostate), 3 day, read-out: Cmpd A 3 day TC50): 3.9 nM
- CC50 ([2]; Homo sapiens, DU-145, 168 h, DU145 (prostate), 7 DAY, read-out: TC50 (the source's name)): 2.7 nM
- CC50 ([2]; Homo sapiens, DU-145, 168 h, DU145 cells (prostate), 7 day, read-out: Cmpd A 7 day TC50): 3 nM
- CC50 ([2]; Homo sapiens, DU-4475, 72 h, DU4475 (breast), 3 DAY, read-out: TC50 (the source's name)): 0.1 nM
- CC50 ([2]; Homo sapiens, DU-4475, 72 h, DU4475 cells (breast), 3 day, read-out: Cmpd A 3 day TC50): 0.1 nM
- CC50 ([2]; Homo sapiens, DU-4475, 168 h, DU4475 (breast), 7 DAY, read-out: TC50 (the source's name)): 0.1 nM
- CC50 ([2]; Homo sapiens, DU-4475, 168 h, DU4475 cells (breast), 7 day, read-out: Cmpd A 7 day TC50): 0.1 nM
- CC50 ([2]; Homo sapiens, Daudi, 72 h, Daudi cells (lymphoma), 3 day, read-out: Cmpd A 3 day TC50): 1.4 nM
- CC50 ([2]; Homo sapiens, EKVX, 72 h, EKVX cells (lung (NSCLC)), 3 day, read-out: Cmpd A 3 day TC50): 4 nM
- CC50 ([2]; Homo sapiens, EKVX, 168 h, EKVX cells (lung (NSCLC)), 7 day, read-out: Cmpd A 7 day TC50): 1 nM
- CC50 ([2]; Homo sapiens, H9, 72 h, H9 cells (lymphoma), 3 day, read-out: Cmpd A 3 day TC50): 3.2 nM
- CC50 ([2]; Homo sapiens, HCC827, 72 h, HCC827 (NSCLC), 3 DAY, read-out: TC50 (the source's name)): 8 nM
- CC50 ([2]; Homo sapiens, HCC827, 72 h, HCC827 cells (lung (NSCLC)), 3 day, read-out: Cmpd A 3 day TC50): 8 nM
- CC50 ([2]; Homo sapiens, HCC827, 168 h, HCC827 (NSCLC), 7 DAY, read-out: TC50 (the source's name)): 1.5 nM
- CC50 ([2]; Homo sapiens, HCC827, 168 h, HCC827 cells (lung (NSCLC)), 7 day, read-out: Cmpd A 7 day TC50): 1.5 nM
- CC50 ([2]; Homo sapiens, HCC1937, 72 h, HCC1937 cells (breast), 3 day, read-out: Cmpd A 3 day TC50): 61 nM
- CC50 ([2]; Homo sapiens, HCC1937, 168 h, HCC1937 cells (breast), 7 day, read-out: Cmpd A 7 day TC50): 1.5 nM
- CC50 ([2]; Homo sapiens, HCT-15, 72 h, HCT-15 (colon), 3 DAY, read-out: TC50 (the source's name)): 0.7 nM
- CC50 ([2]; Homo sapiens, HCT-15, 168 h, HCT-15 (colon), 7 DAY, read-out: TC50 (the source's name)): 1 nM
- CC50 ([2]; Homo sapiens, HCT-15, 168 h, HCT-15 cells (colon), 7 day, read-out: Cmpd A 7 day TC50): 1 nM
- CC50 ([2]; Homo sapiens, HCT-116, 72 h, HCT116 (colon), 3 DAY, read-out: TC50 (the source's name)): 0.6 nM
- CC50 ([2]; Homo sapiens, HCT-116, 72 h, HCT-116 cells (colon), 3 day, read-out: Cmpd A 3 day TC50): 0.2 to 4.4 nM
- CC50 ([2]; Homo sapiens, HCT-116, 168 h, HCT116 (colon), 7 DAY, read-out: TC50 (the source's name)): 0.4 nM
- CC50 ([2]; Homo sapiens, HCT-116, 168 h, HCT-116 cells (colon), 7 day, read-out: Cmpd A 7 day TC50): 0.4 nM
- CC50 ([2]; Homo sapiens, HL-60, 72 h, HL-60 cells (myelogenous leukemia), 3 day, read-out: Cmpd A 3 day TC50): 5.3 nM
- CC50 ([2]; Homo sapiens, HOP-62, 72 h, HOP62 cells (lung (NSCLC)), 3 day, read-out: Cmpd A 3 day TC50): 4 nM
- CC50 ([2]; Homo sapiens, HOP-92, 72 h, HOP92 (NSCLC), 3 DAY, read-out: TC50 (the source's name)): 17 nM
- CC50 ([2]; Homo sapiens, HOP-92, 72 h, HOP92 cells (lung (NSCLC)), 3 day, read-out: Cmpd A 3 day TC50): 17 nM
- CC50 ([2]; Homo sapiens, HOP-92, 168 h, HOP92 (NSCLC), 7 DAY, read-out: TC50 (the source's name)): 4.3 nM
- CC50 ([2]; Homo sapiens, HOP-92, 168 h, HOP92 cells (lung (NSCLC)), 7 day, read-out: Cmpd A 7 day TC50): 4.3 nM
- CC50 ([2]; Homo sapiens, HOS, 72 h, HOS cells (osteosarcoma), 3 day, read-out: Cmpd A 3 day TC50): < 0.8 nM
- CC50 ([2]; Homo sapiens, HT-29, 72 h, HT29 (colon), 3 DAY, read-out: TC50 (the source's name)): 1.4 nM
- CC50 ([2]; Homo sapiens, HT-29, 72 h, HT29 cells (colon), 3 day, read-out: Cmpd A 3 day TC50): 1.4 nM
- CC50 ([2]; Homo sapiens, HT-29, 168 h, HT29 (colon), 7 DAY, read-out: TC50 (the source's name)): 1.1 nM
- CC50 ([2]; Homo sapiens, HT-29, 168 h, HT29 cells (colon), 7 day, read-out: Cmpd A 7 day TC50): 1.1 nM
- CC50 ([2]; Homo sapiens, HT-1080, 72 h, HT1080 (sarcoma), 3 DAY, read-out: TC50 (the source's name)): 1 nM
- CC50 ([2]; Homo sapiens, HT-1080, 72 h, HT1080 cells (fibrosarcoma), 3 day, read-out: Cmpd A 3 day TC50): 1 nM
- CC50 ([2]; Homo sapiens, HT-1080, 168 h, HT1080 (sarcoma), 7 DAY, read-out: TC50 (the source's name)): 0.6 nM
- CC50 ([2]; Homo sapiens, HT-1080, 168 h, HT1080 cells (fibrosarcoma), 7 day, read-out: Cmpd A 7 day TC50): 0.6 nM
- CC50 ([2]; Homo sapiens, IGROV-1, 72 h, IGR-OV1 cells (ovary), 3 day, read-out: Cmpd A 3 day TC50): 2 nM
- CC50 ([2]; Homo sapiens, JJN-3, 72 h, JJN3 cells (myeloma (plasma cell leukemia)), 3 day, read-out: Cmpd A 3 day TC50): 0.9 nM
- CC50 ([2]; Homo sapiens, K562, 72 h, K562 cells (myelogenous leukemia), 3 day, read-out: Cmpd A 3 day TC50): 5.7 nM
- CC50 ([2]; Homo sapiens, KARPAS-299, 72 h, KARPAS-299 cells (lymphocytic leukemia), 3 day, read-out: Cmpd A 3 day TC50): 20 nM
- CC50 ([2]; Homo sapiens, KINGS-1, 72 h, KINGS-1 cells (brain, anaplastic astrocytoma (glioma)), 3 day, read-out: Cmpd A 3 day TC50): 2 nM
- CC50 ([2]; Homo sapiens, KM12, 72 h, KM12 (colon), 3 DAY, read-out: TC50 (the source's name)): 0.9 nM
- CC50 ([2]; Homo sapiens, KM12, 72 h, KM12 cells (colon), 3 day, read-out: Cmpd A 3 day TC50): 0.9 nM
- CC50 ([2]; Homo sapiens, KM12, 168 h, KM12 (colon), 7 DAY, read-out: TC50 (the source's name)): 0.4 nM
- CC50 ([2]; Homo sapiens, KM12, 168 h, KM12 cells (colon), 7 day, read-out: Cmpd A 7 day TC50): 0.4 nM
- CC50 ([2]; Homo sapiens, LOX IMVI, 72 h, LOX-IMVI cells (melanoma), 3 day, read-out: Cmpd A 3 day TC50): 15 nM
- CC50 ([2]; Homo sapiens, MCF7, 72 h, MCF7 cells (breast), 3 day, read-out: Cmpd A 3 day TC50): 2.2 nM
- CC50 ([2]; Homo sapiens, MDA-MB-231, 72 h, MDA-MB-231 (breast), 3 DAY, read-out: TC50 (the source's name)): 10 nM
- CC50 ([2]; Homo sapiens, MDA-MB-231, 168 h, MDA-MB-231 (breast), 7 DAY, read-out: TC50 (the source's name)): 7.5 nM

Source: patent publication US8912184B1, “Therapeutic and diagnostic methods” (Alzheimer's Institute of America, Inc., priority 2010, dated 2014)
